Source: patent US9340590B2 (priority 2011, dated 2016)
Where two headings read alike, the source gives them in different places. Positions of bridges follow the written chain, without caps; N, C: chain ends. Non-standard residues stand in square brackets, D forms with d. Residues, ends and D or L forms follow the SMILES beside them. Phe(4-COOH) = N[C@@H](Cc1ccc(C(=O)O)cc1)C(=O)O; 2Pal = N[C@@H](Cc1ccccn1)C(=O)O

Tests used:
Assay in all cases: cell-based
hNav1.7 = hNav1.7 (Homo sapiens, UniProt Q15858); type: cell-based; conditions: IonWorks Quattro, use, […], read-out: IWQ Use Nav1.7
hNav1.3 = hNav1.3 (Homo sapiens, UniProt Q9NY46); conditions: IonWorks Quattro, use, […], read-out: IWQ Use Nav1.3
hNav1.5 = hNav1.5 (Homo sapiens, UniProt Q14524); conditions: IonWorks Quattro, use, […], read-out: IWQ Use Nav1.5
hNav1.5, sequence (Q14524 whole entry, looked up): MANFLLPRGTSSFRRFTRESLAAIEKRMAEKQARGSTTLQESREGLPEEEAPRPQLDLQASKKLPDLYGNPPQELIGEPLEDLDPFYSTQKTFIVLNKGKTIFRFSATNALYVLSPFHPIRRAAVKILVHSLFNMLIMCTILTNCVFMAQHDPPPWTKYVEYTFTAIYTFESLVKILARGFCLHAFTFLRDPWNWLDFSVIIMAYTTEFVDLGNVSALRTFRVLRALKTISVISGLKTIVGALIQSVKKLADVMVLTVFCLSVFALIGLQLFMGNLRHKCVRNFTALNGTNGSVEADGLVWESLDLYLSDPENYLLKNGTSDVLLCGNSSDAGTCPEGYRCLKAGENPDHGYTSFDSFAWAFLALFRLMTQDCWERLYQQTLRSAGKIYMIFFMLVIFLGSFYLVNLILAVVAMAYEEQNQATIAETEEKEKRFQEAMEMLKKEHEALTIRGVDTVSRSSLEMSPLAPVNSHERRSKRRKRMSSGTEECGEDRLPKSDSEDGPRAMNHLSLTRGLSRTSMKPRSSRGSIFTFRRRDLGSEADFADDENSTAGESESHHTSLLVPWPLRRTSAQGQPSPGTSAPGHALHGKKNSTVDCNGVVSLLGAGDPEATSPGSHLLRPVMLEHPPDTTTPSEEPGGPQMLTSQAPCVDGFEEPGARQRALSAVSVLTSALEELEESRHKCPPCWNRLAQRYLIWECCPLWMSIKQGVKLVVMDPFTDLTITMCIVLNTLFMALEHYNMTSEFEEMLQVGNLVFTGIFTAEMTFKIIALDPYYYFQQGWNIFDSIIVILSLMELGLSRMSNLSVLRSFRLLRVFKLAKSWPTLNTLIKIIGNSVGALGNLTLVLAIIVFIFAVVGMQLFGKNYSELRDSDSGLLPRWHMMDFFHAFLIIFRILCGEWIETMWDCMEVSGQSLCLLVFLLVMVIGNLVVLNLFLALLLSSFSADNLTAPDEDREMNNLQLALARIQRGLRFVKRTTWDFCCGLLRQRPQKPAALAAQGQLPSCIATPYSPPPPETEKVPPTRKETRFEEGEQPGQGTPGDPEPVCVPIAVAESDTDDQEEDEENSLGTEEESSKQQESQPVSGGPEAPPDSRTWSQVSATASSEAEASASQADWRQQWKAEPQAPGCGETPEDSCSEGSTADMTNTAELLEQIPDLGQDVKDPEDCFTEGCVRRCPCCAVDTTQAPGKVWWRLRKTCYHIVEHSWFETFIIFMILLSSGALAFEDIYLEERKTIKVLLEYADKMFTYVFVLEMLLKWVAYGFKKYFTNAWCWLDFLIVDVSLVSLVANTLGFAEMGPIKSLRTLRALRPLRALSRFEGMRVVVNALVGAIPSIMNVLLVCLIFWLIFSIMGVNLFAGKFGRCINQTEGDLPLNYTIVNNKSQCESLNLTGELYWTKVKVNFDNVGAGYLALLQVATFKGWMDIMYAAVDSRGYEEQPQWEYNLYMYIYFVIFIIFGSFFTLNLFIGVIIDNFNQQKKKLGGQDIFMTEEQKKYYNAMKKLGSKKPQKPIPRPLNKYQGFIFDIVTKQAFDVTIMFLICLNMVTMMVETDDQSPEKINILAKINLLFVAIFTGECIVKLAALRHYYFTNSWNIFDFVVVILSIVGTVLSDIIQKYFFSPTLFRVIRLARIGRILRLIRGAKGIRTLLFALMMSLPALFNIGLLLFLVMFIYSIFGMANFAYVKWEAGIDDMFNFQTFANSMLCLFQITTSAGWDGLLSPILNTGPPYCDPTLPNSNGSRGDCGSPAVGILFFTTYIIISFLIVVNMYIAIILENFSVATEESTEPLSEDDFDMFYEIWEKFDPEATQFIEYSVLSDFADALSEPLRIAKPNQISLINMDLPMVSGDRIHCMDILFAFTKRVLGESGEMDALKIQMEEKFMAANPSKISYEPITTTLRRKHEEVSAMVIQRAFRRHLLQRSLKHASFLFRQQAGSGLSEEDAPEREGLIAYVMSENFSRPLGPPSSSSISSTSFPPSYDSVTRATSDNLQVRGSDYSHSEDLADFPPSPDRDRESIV

hNav1.7, sequence (Q15858 whole entry, looked up): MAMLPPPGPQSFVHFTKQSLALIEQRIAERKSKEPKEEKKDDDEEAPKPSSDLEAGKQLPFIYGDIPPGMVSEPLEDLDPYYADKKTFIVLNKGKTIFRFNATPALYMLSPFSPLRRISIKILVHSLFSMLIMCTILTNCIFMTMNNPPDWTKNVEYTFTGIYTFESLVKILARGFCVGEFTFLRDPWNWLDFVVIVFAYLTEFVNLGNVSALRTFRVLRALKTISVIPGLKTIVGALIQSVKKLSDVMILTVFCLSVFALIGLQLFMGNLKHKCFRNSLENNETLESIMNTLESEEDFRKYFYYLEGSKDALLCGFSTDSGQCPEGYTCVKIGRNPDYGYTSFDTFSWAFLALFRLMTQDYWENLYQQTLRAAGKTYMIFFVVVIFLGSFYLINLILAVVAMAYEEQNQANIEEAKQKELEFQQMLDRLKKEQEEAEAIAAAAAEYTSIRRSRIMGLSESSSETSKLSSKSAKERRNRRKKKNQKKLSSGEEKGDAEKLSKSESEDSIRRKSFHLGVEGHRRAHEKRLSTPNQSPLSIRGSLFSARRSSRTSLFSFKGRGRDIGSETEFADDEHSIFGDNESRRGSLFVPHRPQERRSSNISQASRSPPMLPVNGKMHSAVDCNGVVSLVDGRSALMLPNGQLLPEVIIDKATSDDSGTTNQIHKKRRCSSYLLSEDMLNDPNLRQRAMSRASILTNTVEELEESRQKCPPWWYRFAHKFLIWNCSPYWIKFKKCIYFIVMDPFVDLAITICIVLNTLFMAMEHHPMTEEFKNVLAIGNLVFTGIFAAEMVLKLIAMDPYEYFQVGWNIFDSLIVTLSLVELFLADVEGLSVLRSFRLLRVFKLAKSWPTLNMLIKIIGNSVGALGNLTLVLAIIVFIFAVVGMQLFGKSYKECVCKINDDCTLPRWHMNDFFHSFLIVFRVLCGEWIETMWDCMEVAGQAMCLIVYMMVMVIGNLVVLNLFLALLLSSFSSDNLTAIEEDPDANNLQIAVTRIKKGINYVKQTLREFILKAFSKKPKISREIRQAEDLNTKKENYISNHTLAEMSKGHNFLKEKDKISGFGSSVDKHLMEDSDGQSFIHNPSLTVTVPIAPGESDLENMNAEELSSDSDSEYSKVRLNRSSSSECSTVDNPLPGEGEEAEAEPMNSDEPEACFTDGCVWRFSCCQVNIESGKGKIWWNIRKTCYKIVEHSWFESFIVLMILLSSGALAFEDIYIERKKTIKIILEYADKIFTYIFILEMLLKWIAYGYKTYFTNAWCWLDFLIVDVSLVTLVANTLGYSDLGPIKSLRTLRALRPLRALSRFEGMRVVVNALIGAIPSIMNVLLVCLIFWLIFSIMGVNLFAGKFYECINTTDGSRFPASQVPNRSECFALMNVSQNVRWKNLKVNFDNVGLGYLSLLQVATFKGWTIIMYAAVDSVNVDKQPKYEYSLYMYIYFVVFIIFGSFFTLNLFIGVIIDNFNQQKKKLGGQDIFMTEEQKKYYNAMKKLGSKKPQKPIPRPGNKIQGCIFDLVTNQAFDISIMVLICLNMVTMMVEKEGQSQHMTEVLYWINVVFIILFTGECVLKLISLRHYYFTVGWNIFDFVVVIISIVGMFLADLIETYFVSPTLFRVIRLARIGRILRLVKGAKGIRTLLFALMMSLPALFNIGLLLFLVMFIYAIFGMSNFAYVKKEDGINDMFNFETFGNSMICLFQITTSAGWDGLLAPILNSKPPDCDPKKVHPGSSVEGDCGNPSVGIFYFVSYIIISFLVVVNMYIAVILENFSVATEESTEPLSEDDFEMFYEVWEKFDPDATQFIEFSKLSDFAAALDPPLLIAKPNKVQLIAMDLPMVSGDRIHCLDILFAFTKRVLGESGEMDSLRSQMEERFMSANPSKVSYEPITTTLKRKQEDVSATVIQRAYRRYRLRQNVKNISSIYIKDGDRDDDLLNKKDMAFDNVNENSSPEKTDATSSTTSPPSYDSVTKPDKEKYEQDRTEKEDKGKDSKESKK

SMILES | IC50 (hNav1.7; Table 22) [nM] | IC50 (hNav1.3; Table 22) [nM] | IC50 (hNav1.5; Table 22) [nM] | IC50 (hNav1.7; Table 23) [nM] | IC50 (hNav1.3; Table 23) [nM] | IC50 (hNav1.5; Table 23) [nM]
CC[C@H](C)[C@@H]1NC(=O)[C@@H]2CSSC[C@@H]3NC(=O)[C@H](C(C)C)NC(=O)[C@H](CC(C)C)NC(=O)[C@H](CC(N)=O)NC(=O)[C@@H]4CCCN4C(=O)[C@H](CCCNC(=N)N)NC(=O)[C@H](CSSC[C@H](NC(=O)[C@@H](N)CC(=O)O)C(=O)N[C@@H](CC(C)C)C(=O)NCC(=O)N[C@@H](Cc4ccccc4)C(=O)N[C@@H](CCSC)C(=O)N[C@@H](CCCNC(=N)N)C(=O)N[C@@H](CCCCN)C(=O)N2)NC(=O)[C@H](CSSC[C@@H](C(=O)N[C@@H](CCCCN)C(=O)N[C@@H](Cc2ccc(O)cc2)C(=O)N[C@H](C(=O)N[C@@H](Cc2ccccc2)C(N)=O)C(C)C)NC(=O)[C@H](Cc2c[nH]c4ccccc24)NC(=O)[C@H](CCCCN)NC(=O)[C@H](Cc2c[nH]cn2)NC(=O)[C@H](C(C)C)NC(=O)[C@H](CCCNC(=N)N)NC(=O)[C@H](CO)NC3=O)NC(=O)[C@H](CCCCN)NC(=O)[C@H](CC(=O)O)NC(=O)[C@H](CC(N)=O)NC(=O)[C@H](CC(=O)O)NC(=O)[C@@H]2CCCN2C1=O [compound 344] (H-DCLGFMRKCIPDNDKCCRPNLVCSRVHKWCKYVF-NH2; disulfide 2-17, 9-23, 16-30) | 60 | 40 | 8930 |  |  | 
CC[C@H](C)[C@@H]1NC(=O)[C@@H]2CSSC[C@@H]3NC(=O)[C@H](C(C)C)NC(=O)[C@H](CC(C)C)NC(=O)[C@H](CC(N)=O)NC(=O)[C@@H]4CCCN4C(=O)[C@H](CCCNC(=N)N)NC(=O)[C@H](CSSC[C@H](NC(=O)[C@@H](N)CC(=O)O)C(=O)N[C@@H](CC(C)C)C(=O)NCC(=O)N[C@@H](Cc4ccccc4)C(=O)N[C@@H](CCSC)C(=O)N[C@@H](CCCNC(=N)N)C(=O)N[C@@H](CCCCN)C(=O)N2)NC(=O)[C@H](CSSC[C@@H](C(=O)N[C@@H](CCCCN)C(=O)N[C@@H](Cc2ccc(O)cc2)C(=O)N[C@H](C(=O)N[C@@H](Cc2ccccc2)C(N)=O)C(C)C)NC(=O)[C@H](Cc2c[nH]c4ccccc24)NC(=O)[C@H](CCCCN)NC(=O)[C@H](Cc2c[nH]cn2)NC(=O)[C@@H]2CCCN2C(=O)[C@H](CCCNC(=N)N)NC(=O)[C@H](CO)NC3=O)NC(=O)[C@H](CCCCN)NC(=O)[C@H](CC(=O)O)NC(=O)[C@H](CC(N)=O)NC(=O)[C@H](CC(=O)O)NC(=O)[C@@H]2CCCN2C1=O [compound 345] (H-DCLGFMRKCIPDNDKCCRPNLVCSRPHKWCKYVF-NH2; disulfide 2-17, 9-23, 16-30) | 180 | 160 | 6650 |  |  | 
CC[C@H](C)[C@@H]1NC(=O)[C@@H]2CSSC[C@@H]3NC(=O)[C@H](C(C)C)NC(=O)[C@H](CC(C)C)NC(=O)[C@H](CC(N)=O)NC(=O)[C@@H]4CCCN4C(=O)[C@H](CCCNC(=N)N)NC(=O)[C@H](CSSC[C@H](NC(=O)[C@@H](N)CC(=O)O)C(=O)N[C@@H](CC(C)C)C(=O)NCC(=O)N[C@@H](Cc4ccccc4)C(=O)N[C@@H](CCSC)C(=O)N[C@@H](CCCNC(=N)N)C(=O)N[C@@H](CCCCN)C(=O)N2)NC(=O)[C@H](CSSC[C@@H](C(=O)N[C@@H](CCCCN)C(=O)N[C@@H](Cc2ccc(O)cc2)C(=O)N[C@H](C(=O)N[C@@H](Cc2ccccc2)C(N)=O)C(C)C)NC(=O)[C@H](Cc2c[nH]c4ccccc24)NC(=O)[C@H](CCCCN)NC(=O)[C@H](Cc2c[nH]cn2)NC(=O)[C@H](CCSC)NC(=O)[C@H](CCCNC(=N)N)NC(=O)[C@H](CO)NC3=O)NC(=O)[C@H](CCCCN)NC(=O)[C@H](CC(=O)O)NC(=O)[C@H](CC(N)=O)NC(=O)[C@H](CC(=O)O)NC(=O)[C@@H]2CCCN2C1=O [compound 346] (H-DCLGFMRKCIPDNDKCCRPNLVCSRMHKWCKYVF-NH2; disulfide 2-17, 9-23, 16-30) | 40 | 20 | 4240 |  |  | 
CC[C@H](C)[C@@H]1NC(=O)[C@@H]2CSSC[C@@H]3NC(=O)[C@H](C(C)C)NC(=O)[C@H](CC(C)C)NC(=O)[C@H](CC(N)=O)NC(=O)[C@@H]4CCCN4C(=O)[C@H](CCCNC(=N)N)NC(=O)[C@H](CSSC[C@H](NC(=O)[C@@H](N)CC(=O)O)C(=O)N[C@@H](CC(C)C)C(=O)NCC(=O)N[C@@H](Cc4ccccc4)C(=O)N[C@@H](CCSC)C(=O)N[C@@H](CCCNC(=N)N)C(=O)N[C@@H](CCCCN)C(=O)N2)NC(=O)[C@H](CSSC[C@@H](C(=O)N[C@@H](CCCCN)C(=O)N[C@@H](Cc2ccc(O)cc2)C(=O)N[C@H](C(=O)N[C@@H](Cc2ccccc2)C(N)=O)C(C)C)NC(=O)[C@H](Cc2c[nH]c4ccccc24)NC(=O)[C@H](CCCCN)NC(=O)[C@H](Cc2c[nH]cn2)NC(=O)[C@H](CC(=O)O)NC(=O)[C@H](CCCNC(=N)N)NC(=O)[C@H](CO)NC3=O)NC(=O)[C@H](CCCCN)NC(=O)[C@H](CC(=O)O)NC(=O)[C@H](CC(N)=O)NC(=O)[C@H](CC(=O)O)NC(=O)[C@@H]2CCCN2C1=O [compound 347] (H-DCLGFMRKCIPDNDKCCRPNLVCSRDHKWCKYVF-NH2; disulfide 2-17, 9-23, 16-30) | 960 | 640 | 14100 |  |  | 
CC[C@H](C)[C@@H]1NC(=O)[C@H](CCCNC(=N)N)NC(=O)[C@H](CO)NC(=O)[C@@H]2CSSC[C@@H]3NC(=O)[C@H](CCCCN)NC(=O)[C@H](CCCNC(=N)N)NC(=O)[C@H](CCSC)NC(=O)[C@H](Cc4ccccc4)NC(=O)CNC(=O)[C@H](CC(C)C)NC(=O)[C@@H](NC(=O)[C@@H](N)CC(=O)O)CSSC[C@H](NC(=O)[C@H](CSSC[C@@H](C(=O)N[C@@H](CCCCN)C(=O)N[C@@H](Cc4ccc(O)cc4)C(=O)N[C@H](C(=O)N[C@@H](Cc4ccccc4)C(N)=O)C(C)C)NC(=O)[C@H](Cc4c[nH]c5ccccc45)NC(=O)[C@H](CCCCN)NC(=O)[C@H](Cc4c[nH]cn4)NC1=O)NC(=O)[C@H](CCCCN)NC(=O)[C@H](CC(=O)O)NC(=O)[C@H](CC(N)=O)NC(=O)[C@H](CC(=O)O)NC(=O)[C@@H]1CCCN1C(=O)[C@H]([C@@H](C)CC)NC3=O)C(=O)N[C@@H](CCCNC(=N)N)C(=O)N1CCC[C@H]1C(=O)N[C@@H](CC(N)=O)C(=O)N[C@@H](CC(C)C)C(=O)N[C@@H](C(C)C)C(=O)N2 [compound 348] (H-DCLGFMRKCIPDNDKCCRPNLVCSRIHKWCKYVF-NH2; disulfide 2-17, 9-23, 16-30) | 50 | 30 | 8150 |  |  | 
CC[C@H](C)[C@@H]1NC(=O)[C@@H]2CSSC[C@@H]3NC(=O)[C@H](C(C)C)NC(=O)[C@H](CC(C)C)NC(=O)[C@H](CC(N)=O)NC(=O)[C@@H]4CCCN4C(=O)[C@H](CCCNC(=N)N)NC(=O)[C@H](CSSC[C@H](NC(=O)[C@@H](N)CC(=O)O)C(=O)N[C@@H](CC(C)C)C(=O)NCC(=O)N[C@@H](Cc4ccccc4)C(=O)N[C@@H](CCSC)C(=O)N[C@@H](CCCNC(=N)N)C(=O)N[C@@H](CCCCN)C(=O)N2)NC(=O)[C@H](CSSC[C@@H](C(=O)N[C@@H](CCCCN)C(=O)N[C@@H](Cc2ccc(O)cc2)C(=O)N[C@H](C(=O)N[C@@H](Cc2ccccc2)C(N)=O)C(C)C)NC(=O)[C@H](Cc2c[nH]c4ccccc24)NC(=O)[C@H](CCCCN)NC(=O)[C@H](Cc2c[nH]cn2)NC(=O)[C@H](Cc2ccccn2)NC(=O)[C@H](CCCNC(=N)N)NC(=O)[C@H](CO)NC3=O)NC(=O)[C@H](CCCCN)NC(=O)[C@H](CC(=O)O)NC(=O)[C@H](CC(N)=O)NC(=O)[C@H](CC(=O)O)NC(=O)[C@@H]2CCCN2C1=O [compound 349] (H-DCLGFMRKCIPDNDKCCRPNLVCSR[2Pal]HKWCKYVF-NH2; disulfide 2-17, 9-23, 16-30) | 260 | 60 | 10600 |  |  | 
CC[C@H](C)[C@@H]1NC(=O)[C@@H]2CSSC[C@@H]3NC(=O)[C@H](C(C)C)NC(=O)[C@H](CC(C)C)NC(=O)[C@H](CC(N)=O)NC(=O)[C@@H]4CCCN4C(=O)[C@H](CCCNC(=N)N)NC(=O)[C@H](CSSC[C@H](NC(=O)[C@@H](N)CC(=O)O)C(=O)N[C@@H](CC(C)C)C(=O)NCC(=O)N[C@@H](Cc4ccccc4)C(=O)N[C@@H](CCSC)C(=O)N[C@@H](CCCNC(=N)N)C(=O)N[C@@H](CCCCN)C(=O)N2)NC(=O)[C@H](CSSC[C@@H](C(=O)N[C@@H](CCCCN)C(=O)N[C@@H](Cc2ccc(O)cc2)C(=O)N[C@H](C(=O)N[C@@H](Cc2ccccc2)C(N)=O)C(C)C)NC(=O)[C@H](Cc2c[nH]c4ccccc24)NC(=O)[C@H](CCCCN)NC(=O)[C@H](Cc2c[nH]cn2)NC(=O)[C@H](Cc2ccc(C(=O)O)cc2)NC(=O)[C@H](CCCNC(=N)N)NC(=O)[C@H](CO)NC3=O)NC(=O)[C@H](CCCCN)NC(=O)[C@H](CC(=O)O)NC(=O)[C@H](CC(N)=O)NC(=O)[C@H](CC(=O)O)NC(=O)[C@@H]2CCCN2C1=O [compound 350] (H-DCLGFMRKCIPDNDKCCRPNLVCSR[Phe(4-COOH)]HKWCKYVF-NH2; disulfide 2-17, 9-23, 16-30) | 400 | 2620 | 6460 |  |  | 
CC[C@H](C)[C@@H]1NC(=O)[C@@H]2CSSC[C@@H]3NC(=O)[C@H](C(C)C)NC(=O)[C@H](CC(C)C)NC(=O)[C@H](CC(N)=O)NC(=O)[C@@H]4CCCN4C(=O)[C@H](CCCNC(=N)N)NC(=O)[C@H](CSSC[C@H](NC(=O)[C@@H](N)CC(=O)O)C(=O)N[C@@H](CC(C)C)C(=O)NCC(=O)N[C@@H](Cc4ccccc4)C(=O)N[C@@H](CCSC)C(=O)N[C@@H](CCCNC(=N)N)C(=O)N[C@@H](CCCCN)C(=O)N2)NC(=O)[C@H](CSSC[C@@H](C(=O)N[C@@H](CCCCN)C(=O)N[C@@H](Cc2ccc(O)cc2)C(=O)N[C@H](C(=O)N[C@@H](Cc2ccccc2)C(N)=O)C(C)C)NC(=O)[C@H](Cc2c[nH]c4ccccc24)NC(=O)[C@H](CCCCN)NC(=O)[C@H](Cc2ccc(C(=O)O)cc2)NC(=O)[C@H]([C@@H](C)O)NC(=O)[C@H](CCCNC(=N)N)NC(=O)[C@H](CO)NC3=O)NC(=O)[C@H](CCCCN)NC(=O)[C@H](CC(=O)O)NC(=O)[C@H](CC(N)=O)NC(=O)[C@H](CC(=O)O)NC(=O)[C@@H]2CCCN2C1=O [compound 351] (H-DCLGFMRKCIPDNDKCCRPNLVCSRT[Phe(4-COOH)]KWCKYVF-NH2; disulfide 2-17, 9-23, 16-30) |  |  |  | 15400 | 8410 | 6650
